Columns and labels:
Type in all cases: biochemical
[1] = target: T1, human IGF1R cytoplasmic domain (Homo sapiens, UniProt P08069); experiment: IGF1R autophosphorylation inhibition, time resolved fluorescence (HTRF) assay; settings: 10 μM; read-out: IGF1R % inhib at 10 μM
T1 construct: The human IGF1R cytoplasmic domain was cloned; made in house; host or cells: SF21 insect cells (baculovirus)
Procedure, shortened: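 GST-tagged human IGF1R cytoplasmic domain from SF21 cells incubated with compound in 50 mM Hepes pH 7.5, 5 mM MnCl2, 50 mM NaCl, […] ATP. Autophosphorylation detected by HTRF (Eu-K anti-phosphotyrosine, XL665 anti-GST) after EDTA/KF stop; percentage inhibition versus no-compound control.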

human FAK = target: T2, human FAK (Homo sapiens, UniProt Q05397); experiment: FAK autophosphorylation inhibition, time resolved fluorescence (HTRF) assay; settings: 10 μM (values without asterisk); for inhibition at 10 µM: read-out: FAK % inhib at 10 μM
T2 construct: The complete cDNA of human FAK; made in house; host or cells: baculovirus expression system (vector pFastBac HTc)
Procedure, shortened: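 His-tagged full-length human FAK from baculovirus (6.6 µg/ml) self-phosphorylates with 15 µM ATP in HEPES pH 7.2, MgCl2, vanadate, 1 h at 37 °C. HTRF detection (Eu-anti-phosphotyrosine / XL665-anti-His), 665/620 nm ratio; % inhibition vs untreated control, duplicate mean.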

Aurora2 kinase = target: T3, Aurora2 kinase (Homo sapiens, UniProt O14965); experiment: Aurora2 kinase radioactivity scintillation assay using nickel chelate (NuMA substrate); settings: 10 μM; for inhibition at 10 µM: read-out: Aurora2 % inhib at 10 μM
T3 construct: A complete recombinant Aurora2 enzyme; His tag (N); made in house; host or cells: E. coli
T3 sequence (O14965 1-403): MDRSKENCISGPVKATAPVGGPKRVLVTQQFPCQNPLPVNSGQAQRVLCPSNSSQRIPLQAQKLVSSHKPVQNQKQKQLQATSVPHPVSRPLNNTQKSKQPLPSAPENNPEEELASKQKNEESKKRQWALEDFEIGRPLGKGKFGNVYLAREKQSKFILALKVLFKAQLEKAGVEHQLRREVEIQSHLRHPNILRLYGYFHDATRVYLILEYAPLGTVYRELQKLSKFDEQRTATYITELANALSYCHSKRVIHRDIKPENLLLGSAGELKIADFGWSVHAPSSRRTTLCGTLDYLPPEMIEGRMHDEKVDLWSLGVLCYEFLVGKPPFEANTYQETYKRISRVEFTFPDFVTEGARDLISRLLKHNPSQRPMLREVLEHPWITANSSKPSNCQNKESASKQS
Procedure, shortened: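 His-tagged full-length Aurora2 (0.02 μM, E. coli) phosphorylating His-tagged NuMA C-terminal fragment (0.5 μM) with 1 μM ATP plus [33P]-ATP, 30 min at 37 °C, pH 7.5 Tris buffer with MgCl2. Nickel-chelate scintillation read; percent inhibition versus no-compound control.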

T1 sequence (P08069 960-1367 limits assumed): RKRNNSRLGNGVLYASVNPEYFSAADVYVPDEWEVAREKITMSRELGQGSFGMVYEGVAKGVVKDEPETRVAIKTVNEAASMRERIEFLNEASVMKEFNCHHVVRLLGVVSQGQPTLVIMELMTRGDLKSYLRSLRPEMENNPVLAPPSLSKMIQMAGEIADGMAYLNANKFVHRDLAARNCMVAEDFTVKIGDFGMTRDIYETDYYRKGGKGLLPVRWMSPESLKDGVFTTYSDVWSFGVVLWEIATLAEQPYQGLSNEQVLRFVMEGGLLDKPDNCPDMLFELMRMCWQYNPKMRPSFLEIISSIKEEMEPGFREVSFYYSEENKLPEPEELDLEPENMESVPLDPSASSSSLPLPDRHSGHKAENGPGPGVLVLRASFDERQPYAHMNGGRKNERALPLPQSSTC
T2 sequence (Q05397 whole entry): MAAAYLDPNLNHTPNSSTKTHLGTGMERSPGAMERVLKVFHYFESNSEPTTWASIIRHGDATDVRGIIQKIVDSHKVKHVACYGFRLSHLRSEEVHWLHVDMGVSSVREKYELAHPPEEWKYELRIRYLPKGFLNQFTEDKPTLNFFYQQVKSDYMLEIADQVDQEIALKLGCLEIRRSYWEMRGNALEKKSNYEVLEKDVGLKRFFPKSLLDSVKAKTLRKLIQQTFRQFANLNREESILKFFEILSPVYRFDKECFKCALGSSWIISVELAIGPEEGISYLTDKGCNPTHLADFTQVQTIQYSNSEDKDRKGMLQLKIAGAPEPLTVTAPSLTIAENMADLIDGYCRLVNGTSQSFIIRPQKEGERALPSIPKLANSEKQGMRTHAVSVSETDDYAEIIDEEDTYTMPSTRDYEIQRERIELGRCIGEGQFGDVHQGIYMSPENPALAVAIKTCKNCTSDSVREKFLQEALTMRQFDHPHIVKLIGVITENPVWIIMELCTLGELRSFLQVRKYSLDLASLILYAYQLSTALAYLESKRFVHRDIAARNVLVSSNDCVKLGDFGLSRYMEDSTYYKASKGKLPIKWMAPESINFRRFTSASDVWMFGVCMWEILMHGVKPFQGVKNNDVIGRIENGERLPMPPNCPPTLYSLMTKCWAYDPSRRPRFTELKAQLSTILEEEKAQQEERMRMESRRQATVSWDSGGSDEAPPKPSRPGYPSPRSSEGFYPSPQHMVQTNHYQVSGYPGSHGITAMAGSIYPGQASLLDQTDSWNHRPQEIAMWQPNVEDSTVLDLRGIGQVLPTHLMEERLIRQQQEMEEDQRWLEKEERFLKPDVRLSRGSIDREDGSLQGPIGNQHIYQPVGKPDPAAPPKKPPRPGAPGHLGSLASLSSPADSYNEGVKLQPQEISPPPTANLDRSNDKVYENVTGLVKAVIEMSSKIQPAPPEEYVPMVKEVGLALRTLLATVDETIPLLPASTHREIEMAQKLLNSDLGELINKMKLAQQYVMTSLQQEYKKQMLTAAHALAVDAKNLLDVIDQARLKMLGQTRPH

Structure (SMILES)	inhibition at 10 µM [1] [%]	inhibition at 10 µM (human FAK) [%]	inhibition at 10 µM (Aurora2 kinase) [%]	FAK % inhib at 10 μM (human FAK; 10 µM) [%]	Aurora2 % inhib at 10 μM (Aurora2 kinase) [%]
CS(=O)(=O)c1ccccc1S(=O)(=O)Nc1ccc2[nH]nc(/C=C/c3ccc(F)cc3)c2c1 [Example 74, N-{3-[(E)-2-(4-Fluorophenyl)vinyl]-1H-indazol-5-yl}-2-methylsulfonylbenzenesulfonamide]	95	99	99	–	–
CS(=O)(=O)c1ccccc1S(=O)(=O)Nc1ccc2[nH]nc(/C=C/c3ccc(Cl)cc3)c2c1 [Example 76, N-{3-[(E)-2-(4-Chlorophenyl)vinyl]-1H-indazol-5-yl}-2-methylsulfonylbenzenesulfonamide]	96	96	99	–	–
COC(=O)/C=C/c1n[nH]c2ccc(NS(=O)(=O)c3ccccc3S(C)(=O)=O)cc12 [Example 79, Methyl (E)-3-[5(2-methylsulfonylbenzenesulfonylamino)-1H-indazol-3-yl]-acrylate]	37	98	95	–	–
CS(=O)(=O)c1ccccc1S(=O)(=O)Nc1ccc2[nH]nc(-c3nc4ccccc4[nH]3)c2c1 [Example 81, N-[3-(1H-Benzimidazol-2-yl)-1H-indazol-5-yl]-2-methylsulfonylbenzenesulfonamide]	99	98	100	–	–
O=S(=O)(Nc1ccc2[nH]nc(-c3cc4ccccc4[nH]3)c2c1)c1ccccc1OC(F)(F)F [Example 84, N-[3-(1H-Indol-2-yl)-1H-indazol-5-yl]-2-trifluoromethoxybenzenesulfonamide]	94	90	100	–	–
CS(=O)(=O)c1ccccc1S(=O)(=O)Nc1ccc2[nH]nc(Sc3ccccc3)c2c1 [Example 88, 2-Methylsulfonyl-N-(3-phenylsulfanyl-1H-indazol-5-yl)-benzenesulfonamide]	82	21	55	–	–
CS(=O)(=O)c1ccccc1S(=O)(=O)Nc1ccc2[nH]nc(C#Cc3ccccc3)c2c1 [Example 89, 2-Methylsulfonyl-N-(3-phenylethynyl-1H-indazol-5-yl)-benzenesulfonamide]	90	92	92	–	–
Cc1cc2[nH]nc(-c3ccccc3)c2cc1NS(=O)(=O)c1ccccc1S(C)(=O)=O [Example 92, 2-Methylsulfonyl-N-(6-methyl-3-phenyl-1H-indazol-5-yl)-benzenesulfonamide]	62	27	70	–	–
CS(=O)(=O)c1ccc(F)cc1S(=O)(=O)Nc1ccc2[nH]nc(-c3ccccc3)c2c1 [Example 93, 5-Fluoro-2-methylsulfonyl-N-(3-phenyl-1H-indazol-5-yl)-benzenesulfonamide]	87	94	89	–	–
Nc1ccc(S(=O)(=O)Nc2ccc3[nH]nc(-c4ccccc4)c3c2)cc1 [Example 94, 4-Amino-N-(3-phenyl-1H-indazol-5-yl)benzenesulfonamide]	70	36	65	–	–
CC(=O)Nc1ccc(S(=O)(=O)Nc2ccc3[nH]nc(-c4ccccc4)c3c2)cc1 [Example 95, N-[4-(3-Phenyl-1H-indazol-5-ylsulfamoyl)phenyl]acetamide]	73	–	–	0	30
O=S(=O)(Nc1ccc2[nH]nc(-c3ccccc3)c2c1)C1CCNCC1 [Example 100, N-(3-Phenyl-1H-indazol-5-yl)-piperidine-4-sulfonamide]	13	94	44	–	–
O=S(=O)(Nc1ccc2[nH]nc(-c3ccccc3)c2c1)c1ccccc1C(F)(F)F [Example 109, N-(3-Phenyl-1H-indazol-5-yl)-2-trifluoromethylbenzene-sulfonamide]	81	61	100	–	–
O=S(=O)(Nc1ccc2[nH]nc(-c3ccccc3)c2c1)c1cccs1 [Example 110, N-(3-Phenyl-1H-indazol-5-yl)-thiophene-2-sulfonamide]	80	66	100	–	–
O=S(=O)(Nc1ccc2[nH]nc(-c3ccccc3)c2c1)c1ccccc1 [Example 112, N-(3-Phenyl-1H-indazol-5-yl)benzenesulfonamide]	84	75	100	–	–
O=[N+]([O-])c1ccccc1S(=O)(=O)Nc1ccc2[nH]nc(-c3ccccc3)c2c1 [Example 113, 2-Nitro-N-(3-phenyl-1H-indazol-5-yl)benzenesulfonamide]	81	73	100	–	–
O=S(=O)(Nc1ccc2[nH]nc(-c3ccccc3)c2c1)c1ccc(F)cc1 [Example 117, 4-Fluoro-N-(3-phenyl-1H-indazol-5-yl)-benzenesulfonamide]	56	53	100	–	–
COc1ccc(OC)c(S(=O)(=O)Nc2ccc3[nH]nc(-c4ccccc4)c3c2)c1 [Example 131, 2,5-Dimethoxy-N-(3-phenyl-1H-indazol-5-yl)-benzenesulfonamide]	51	64	97	–	–
Cc1ccccc1S(=O)(=O)Nc1ccc2[nH]nc(-c3ccccc3)c2c1 [Example 132, 2-Methyl-N-(3-phenyl-1H-indazol-5-yl)-benzenesulfonamide]	77	51	100	–	–
O=C(O)c1cccc(S(=O)(=O)Nc2ccc3[nH]nc(-c4ccccc4)c3c2)c1 [Example 133, 3-(3-Phenyl-1H-indazol-5-ylsulfamoyl)benzoic acid]	40	12	67	–	–
O=S(=O)(Nc1ccc2[nH]nc(-c3ccccc3)c2c1)c1ccccc1F [Example 134, 2-Fluoro-N-(3-phenyl-1H-indazol-5-yl)-benzenesulfonamide]	81	67	100	–	–
O=S(=O)(Nc1ccc2[nH]nc(-c3ccccc3)c2c1)c1ccc(Cl)s1 [Example 135, 5-Chloro-N-(3-phenyl-1H-indazol-5-yl)thiophene-2-sulfonamide]	65	50	100	–	–
Cc1cccc(S(=O)(=O)Nc2ccc3[nH]nc(-c4ccccc4)c3c2)c1 [Example 138, 3-Methyl-N-(3-phenyl-1H-indazol-5-yl)-benzenesulfonamide]	72	47	99	–	–
O=S(=O)(Nc1ccc2[nH]nc(-c3ccccc3)c2c1)c1ccc(F)c(F)c1 [Example 152, 3,4-Difluoro-N-(3-phenyl-1H-indazol-5-yl)-benzenesulfonamide]	67	71	92	–	–
N#Cc1cccc(S(=O)(=O)Nc2ccc3[nH]nc(-c4ccccc4)c3c2)c1 [Example 154, 3-Cyano-N-(3-phenyl-1H-indazol-5-yl)-benzenesulfonamide]	75	54	95	–	–
COc1cccc(S(=O)(=O)Nc2ccc3[nH]nc(-c4ccccc4)c3c2)c1 [Example 156, 3-Methoxy-N-(3-phenyl-1H-indazol-5-yl)-benzenesulfonamide]	68	56	99	–	–
O=S(=O)(Nc1ccc2[nH]nc(-c3ccccc3)c2c1)c1cc(F)cc(F)c1 [Example 158, 3,5-Difluoro-N-(3-phenyl-1H-indazol-5-yl)-benzenesulfonamide]	68	95	100	–	–

From patent US6858638B2, “Substituted indazoles, compositions containing them, method of production and use” (Aventis Pharma S.A., priority 2002, dated 2005)
